Reference: the supplement of paper PMC10307832

Tests used:
Test in all cases: relative viability (nuclei count vs DMSO), 5 days (fraction); higher = more cells survive
Alpelisib + OSI-027 = compound: Cc1nc(NC(=O)N2CCC[C@H]2C(N)=O)sc1-c1ccnc(C(C)(C)C(F)(F)F)c1 [Alpelisib] + COc1cccc2cc(-c3nc([C@H]4CC[C@H](C(=O)O)CC4)n4ncnc(N)c34)[nH]c12 [OSI-027] (partner 0.5 µM)
Outline: (§1)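 Cells from lung cancer lines were seeded into 1536-well plates and, one day later, dosed by pin tool. Treatments were either a single drug or a fixed dose of an anchor drug with five library-drug doses (not always all listed) in √10 steps. After 5 days, nuclei were stained in a one-step fixation (final 0.05% Triton X-100, 1% formaldehyde, 1 ug/ml Hoechst) and counted on 4× images, and relative viability is the treated-to-vehicle nuclei ratio, as the median of duplicate plates.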

Vemurafenib + Linsitinib = compound: CCCS(=O)(=O)Nc1ccc(F)c(C(=O)c2c[nH]c3ncc(-c4ccc(Cl)cc4)cc23)c1F [Vemurafenib] + C[C@]1(O)C[C@@H](c2nc(-c3ccc4ccc(-c5ccccc5)nc4c3)c3c(N)nccn32)C1 [Linsitinib] (partner 1 µM)
Outline: as §1

Alpelisib + Phenformin = compound: Cc1nc(NC(=O)N2CCC[C@H]2C(N)=O)sc1-c1ccnc(C(C)(C)C(F)(F)F)c1 [Alpelisib] + N=C(N)NC(=N)NCCc1ccccc1 [Phenformin] (partner 250 µM)
Outline: as §1

Vemurafenib + Pictilisib = compound: CCCS(=O)(=O)Nc1ccc(F)c(C(=O)c2c[nH]c3ncc(-c4ccc(Cl)cc4)cc23)c1F [Vemurafenib] + CS(=O)(=O)N1CCN(Cc2cc3nc(-c4cccc5[nH]ncc45)nc(N4CCOCC4)c3s2)CC1 [Pictilisib] (partner 1 µM)
Outline: as §1

HCC-78
relative viability (Alpelisib + OSI-027; first compound 0.04 µM): 0.378 | relative viability (Alpelisib + OSI-027; first compound 0.1265 µM): 0.306 | relative viability (Alpelisib + OSI-027; first compound 0.4 µM): 0.324 | relative viability (Alpelisib + OSI-027; first compound 1.265 µM): 0.335 | relative viability (Alpelisib + OSI-027; first compound 4 µM): 0.318 | relative viability (Vemurafenib + Linsitinib; first compound 0.03162 µM): 0.627 | relative viability (Vemurafenib + Linsitinib; first compound 0.1 µM): 0.458 | relative viability (Vemurafenib + Linsitinib; first compound 0.3162 µM): 0.679 | relative viability (Vemurafenib + Linsitinib; first compound 1 µM): 0.502 | relative viability (Alpelisib + Phenformin; first compound 0.04 µM): 0.708 | relative viability (Alpelisib + Phenformin; first compound 0.1265 µM): 0.54 | relative viability (Alpelisib + Phenformin; first compound 0.4 µM): 0.708 | relative viability (Alpelisib + Phenformin; first compound 1.265 µM): 0.471 | relative viability (Alpelisib + Phenformin; first compound 4 µM): 0.428 | relative viability (Vemurafenib + Pictilisib; first compound 0.03162 µM): 0.222 | relative viability (Vemurafenib + Pictilisib; first compound 0.1 µM): 0.214 | relative viability (Vemurafenib + Pictilisib; first compound 0.3162 µM): 0.429 | relative viability (Vemurafenib + Pictilisib; first compound 1 µM): 0.185

NCI-H322M
relative viability (Alpelisib + OSI-027; first compound 0.04 µM): 0.56 | relative viability (Alpelisib + OSI-027; first compound 0.1265 µM): 0.527 | relative viability (Alpelisib + OSI-027; first compound 0.4 µM): 0.515 | relative viability (Alpelisib + OSI-027; first compound 1.265 µM): 0.36 | relative viability (Alpelisib + OSI-027; first compound 4 µM): 0.41 | relative viability (Vemurafenib + Linsitinib; first compound 0.03162 µM): 0.851 | relative viability (Vemurafenib + Linsitinib; first compound 0.3162 µM): 0.964 | relative viability (Vemurafenib + Linsitinib; first compound 1 µM): 0.885 | relative viability (Alpelisib + Phenformin; first compound 0.04 µM): 0.74 | relative viability (Alpelisib + Phenformin; first compound 0.1265 µM): 0.674 | relative viability (Alpelisib + Phenformin; first compound 0.4 µM): 0.736 | relative viability (Alpelisib + Phenformin; first compound 1.265 µM): 0.558 | relative viability (Alpelisib + Phenformin; first compound 4 µM): 0.55 | relative viability (Vemurafenib + Pictilisib; first compound 0.03162 µM): 0.552 | relative viability (Vemurafenib + Pictilisib; first compound 0.3162 µM): 0.719 | relative viability (Vemurafenib + Pictilisib; first compound 1 µM): 0.572
